Numbered stars: 1 amine (or outer) side, 2 acyl side, 3 side chain; on linkers, the order of the positions; unused ones are H or OH. Square brackets hold non-standard residues; d marks the D form. Side chains are listed from the residue outwards. Peptide text beside a SMILES is read from it. * marks the point of attachment. C20 diacid = O=C(O)CCCCCCCCCCCCCCCCCCC(=O)*; C18 diacid = O=C(O)CCCCCCCCCCCCCCCCC(=O)*; γGlu = O=C(O)[C@H](CCC(=O)[*:2])N[*:1]; αMeY = C[C@](N)(Cc1ccc(O)cc1)C(=O)O; αMeL = CC(C)C[C@](C)(N)C(=O)O; Orn = NCCC[C@H](N)C(=O)O; AEEA = NCCOCCOCC(=O)O; Aib = CC(C)(N)C(=O)O
How the values were obtained:
[1] = molecular target: human GLP-1 receptor (GLP-1R) (Homo sapiens, UniProt P43220); experiment: cAMP pharmacological functional assay in presence of casein, hGLP-1R; format: cell-based; conditions: HEK293 cells expressing hGLP-1R, 0.1% Casein, geometric mean; read-out: hGLP1R cAMP Rel EC50 nM (SEM, n)
[2] = molecular target: T1, gastric inhibitory peptide receptor (GIPR) (Homo sapiens, UniProt P48546); experiment: cAMP pharmacological functional assay in presence of casein, hGIPR; format: cell-based; conditions: HEK293 cells expressing hGIPR, 0.1% Casein, geometric mean; read-out: hGIPR cAMP Rel EC50 nM (SEM, n)
T1 sequence (P48546 22-466): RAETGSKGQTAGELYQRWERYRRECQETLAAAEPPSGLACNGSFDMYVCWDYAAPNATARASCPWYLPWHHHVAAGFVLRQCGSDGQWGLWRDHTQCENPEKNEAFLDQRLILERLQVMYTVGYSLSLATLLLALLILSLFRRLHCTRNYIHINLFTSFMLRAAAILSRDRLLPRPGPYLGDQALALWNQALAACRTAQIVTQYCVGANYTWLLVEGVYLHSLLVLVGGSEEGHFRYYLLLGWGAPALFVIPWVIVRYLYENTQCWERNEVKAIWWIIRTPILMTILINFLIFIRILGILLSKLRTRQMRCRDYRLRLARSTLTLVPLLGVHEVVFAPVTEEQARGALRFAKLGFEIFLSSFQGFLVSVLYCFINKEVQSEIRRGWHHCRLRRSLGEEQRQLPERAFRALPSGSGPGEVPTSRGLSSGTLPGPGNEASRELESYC

[3] = molecular target: T2, human GLP-1R (Homo sapiens, UniProt P43220); experiment: GLP-1R CHO cell β-arrestin recruitment assay; format: cell-based; parameters: host or cells: CHO-K1 PathHunter cells, assay-ready frozen; conditions: for EC50: CHO-K1 cells, PathHunter β-arrestin-2 recruitment, 0.1% casein, read-out: hGLP1R B-Arrestin2 Rel EC50 uM (SEM, n); for hGLP1R B-Arrestin2 % Top: normalized to GLP-1 maximum control
Outline: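 Peptide-induced β-arrestin-2 recruitment measured by enzyme-fragment complementation luminescence after 90 min at 37 °C plus 60 min detection at RT.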

[4] = molecular target: T2, human GLP-1R; experiment: GLP-1R HEK293 cell membrane [35S]GTPγS binding assay; format: biochemical; parameters: expressed in transfected cells; host or cells: HEK293 cells expressing human GLP-1R; membranes; conditions: HEK293 cell membranes expressing human GLP-1R, [35S]GTPγS binding; read-out: hGLP1R GTPgS Rel EC50 nM (SEM, n)
Outline: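 Agonist-driven Gαs activation read as [35S]GTPγS ([…]) binding to receptor-expressing HEK293 membranes, 30 min at room temperature, pH 7.4. Detection by anti-Gαs immunocapture on scintillation beads; EC50 derived from four-parameter logistic concentration-response fit.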

Chain of human GLP-1 receptor (GLP-1R) (P43220 24-463): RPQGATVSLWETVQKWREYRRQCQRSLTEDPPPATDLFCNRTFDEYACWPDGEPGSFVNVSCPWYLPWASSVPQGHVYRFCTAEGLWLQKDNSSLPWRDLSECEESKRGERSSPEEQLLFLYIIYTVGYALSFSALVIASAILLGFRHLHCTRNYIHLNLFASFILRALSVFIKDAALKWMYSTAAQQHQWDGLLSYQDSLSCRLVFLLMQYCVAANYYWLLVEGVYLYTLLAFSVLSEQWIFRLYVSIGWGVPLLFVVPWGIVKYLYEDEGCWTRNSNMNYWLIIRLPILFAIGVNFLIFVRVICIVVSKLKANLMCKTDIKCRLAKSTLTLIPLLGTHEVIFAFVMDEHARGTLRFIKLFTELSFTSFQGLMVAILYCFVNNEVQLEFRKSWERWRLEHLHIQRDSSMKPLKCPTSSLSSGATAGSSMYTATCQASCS
T2 sequence (P43220 24-463): as above

| SMILES | EC50 [1] [nM] | EC50 [2] [nM] | EC50 [3] [µM] | hGLP1R B-Arrestin2 % Top [3] [%] | EC50 [4] [nM] |
| --- | --- | --- | --- | --- | --- |
| CC[C@H](C)[C@H](NC(=O)[C@H](CC(C)C)NC(=O)[C@](C)(Cc1ccc(O)cc1)NC(=O)[C@H](CCC(=O)O)NC(=O)[C@@H](NC(=O)[C@H](Cc1ccccc1)NC(=O)[C@H](CCC(=O)O)NC(=O)C(C)(C)NC(=O)[C@H](CCC(N)=O)NC(=O)[C@H](C)NC(=O)[C@H](CCCCNC(=O)COCCOCCNC(=O)COCCOCCNC(=O)CC[C@H](NC(=O)CCCCCCCCCCCCCCCCC(=O)O)C(=O)O)NC(=O)[C@H](CCCN)NC(=O)[C@H](CC(=O)O)NC(=O)[C@H](CC(C)C)NC(=O)[C@](C)(CC(C)C)NC(=O)[C@@H](NC(=O)[C@H](CO)NC(=O)[C@H](Cc1ccc(O)cc1)NC(=O)[C@H](CC(=O)O)NC(=O)[C@H](CO)NC(=O)[C@@H](NC(=O)[C@H](Cc1ccccc1)NC(=O)[C@@H](NC(=O)CNC(=O)[C@H](CCC(=O)O)NC(=O)C(C)(C)NC(=O)[C@H](N)Cc1ccc(O)cc1)[C@@H](C)O)[C@@H](C)O)[C@@H](C)CC)[C@@H](C)CC)C(=O)N[C@@H](C)C(=O)NCC(=O)NCC(=O)N1CCC[C@H]1C(=O)N[C@@H](CO)C(=O)N[C@@H](CO)C(=O)NCC(=O)N[C@@H](C)C(=O)N1CCC[C@H]1C(=O)N1CCC[C@H]1C(=O)N1CCC[C@H]1C(=O)N[C@@H](CO)C(N)=O [Example 375] (H-[dY][Aib]EGTFTSDYSI[αMeL]LD[Orn]K([AEEA-AEEA-γGlu-C18 diacid])AQ[Aib]EFIE[αMeY]LIAGGPSSGAPPPS-NH2) | 0.152 | 0.0471 | 0.0114 | 24.2 | 0.419 |
| CC[C@H](C)[C@H](NC(=O)[C@H](CC(C)C)NC(=O)[C@H](Cc1ccc(O)cc1)NC(=O)[C@H](CCC(=O)O)NC(=O)[C@@H](NC(=O)[C@H](Cc1ccccc1)NC(=O)[C@H](CCC(=O)O)NC(=O)C(C)(C)NC(=O)[C@H](CCC(N)=O)NC(=O)[C@H](C)NC(=O)[C@H](CCCCNC(=O)COCCOCCNC(=O)COCCOCCNC(=O)CC[C@H](NC(=O)CCCCCCCCCCCCCCCCC(=O)O)C(=O)O)NC(=O)[C@H](CCCN)NC(=O)[C@H](CC(=O)O)NC(=O)[C@H](CC(C)C)NC(=O)[C@](C)(CC(C)C)NC(=O)[C@@H](NC(=O)[C@H](CO)NC(=O)[C@H](Cc1ccc(O)cc1)NC(=O)[C@H](CC(=O)O)NC(=O)[C@H](CO)NC(=O)[C@@H](NC(=O)[C@H](Cc1ccccc1)NC(=O)[C@@H](NC(=O)CNC(=O)[C@H](CCC(=O)O)NC(=O)C(C)(C)NC(=O)[C@H](N)Cc1ccc(O)cc1)[C@@H](C)O)[C@@H](C)O)[C@@H](C)CC)[C@@H](C)CC)C(=O)N[C@@H](C)C(=O)NCC(=O)NCC(=O)N1CCC[C@H]1C(=O)N[C@@H](CO)C(=O)N[C@@H](CO)C(=O)NCC(=O)N[C@@H](C)C(=O)N1CCC[C@H]1C(=O)N1CCC[C@H]1C(=O)N1CCC[C@H]1C(=O)N[C@@H](CO)C(N)=O [Example 368] (H-[dY][Aib]EGTFTSDYSI[αMeL]LD[Orn]K([AEEA-AEEA-γGlu-C18 diacid])AQ[Aib]EFIEYLIAGGPSSGAPPPS-NH2) | 0.108 | 0.0757 | 0.0479 | 21.3 | 0.495 |
| CC[C@H](C)[C@H](NC(=O)[C@H](CC(C)C)NC(=O)[C@](C)(Cc1ccc(O)cc1)NC(=O)[C@H](CCC(=O)O)NC(=O)[C@@H](NC(=O)[C@H](Cc1ccccc1)NC(=O)[C@H](CCC(=O)O)NC(=O)C(C)(C)NC(=O)[C@H](CCC(N)=O)NC(=O)[C@H](C)NC(=O)[C@H](CCCCNC(=O)COCCOCCNC(=O)COCCOCCNC(=O)CC[C@H](NC(=O)CCCCCCCCCCCCCCCCCCC(=O)O)C(=O)O)NC(=O)[C@H](CCCN)NC(=O)[C@H](CC(=O)O)NC(=O)[C@H](CC(C)C)NC(=O)[C@](C)(CC(C)C)NC(=O)[C@@H](NC(=O)[C@H](CO)NC(=O)[C@H](Cc1ccc(O)cc1)NC(=O)[C@H](CC(=O)O)NC(=O)[C@H](CO)NC(=O)[C@@H](NC(=O)[C@H](Cc1ccccc1)NC(=O)[C@@H](NC(=O)CNC(=O)[C@H](CCC(=O)O)NC(=O)C(C)(C)NC(=O)[C@H](N)Cc1ccc(O)cc1)[C@@H](C)O)[C@@H](C)O)[C@@H](C)CC)[C@@H](C)CC)C(=O)N[C@@H](CCC(=O)O)C(=O)NCC(=O)NCC(=O)N1CCC[C@H]1C(=O)N[C@@H](CO)C(=O)N[C@@H](CO)C(=O)NCC(=O)N[C@@H](C)C(=O)N1CCC[C@H]1C(=O)N1CCC[C@H]1C(=O)N1CCC[C@H]1C(=O)N[C@@H](CO)C(N)=O [Example 380] (H-[dY][Aib]EGTFTSDYSI[αMeL]LD[Orn]K([AEEA-AEEA-γGlu-C20 diacid])AQ[Aib]EFIE[αMeY]LIEGGPSSGAPPPS-NH2) | 0.236 | 0.142 | 0.0137 | 35 | 0.188 |
| CC[C@H](C)[C@H](NC(=O)[C@H](CC(C)C)NC(=O)[C@](C)(Cc1ccc(O)cc1)NC(=O)[C@H](CCC(=O)O)NC(=O)[C@@H](NC(=O)[C@H](Cc1ccccc1)NC(=O)[C@H](CCC(=O)O)NC(=O)C(C)(C)NC(=O)[C@H](CCC(N)=O)NC(=O)[C@H](C)NC(=O)[C@H](CCCCNC(=O)COCCOCCNC(=O)CC[C@H](NC(=O)CCCCCCCCCCCCCCCCCCC(=O)O)C(=O)O)NC(=O)[C@H](CCCCN)NC(=O)[C@H](CC(=O)O)NC(=O)[C@H](CC(C)C)NC(=O)[C@](C)(CC(C)C)NC(=O)[C@@H](NC(=O)[C@H](CO)NC(=O)[C@H](Cc1ccc(O)cc1)NC(=O)[C@H](CC(=O)O)NC(=O)[C@H](CO)NC(=O)[C@@H](NC(=O)[C@H](Cc1ccccc1)NC(=O)[C@@H](NC(=O)CNC(=O)[C@H](CCC(=O)O)NC(=O)C(C)(C)NC(=O)[C@H](N)Cc1ccc(O)cc1)[C@@H](C)O)[C@@H](C)O)[C@@H](C)CC)[C@@H](C)CC)C(=O)N[C@@H](C)C(=O)NCC(=O)NCC(=O)N1CCC[C@H]1C(=O)N[C@@H](CO)C(=O)N[C@@H](CO)C(=O)NCC(=O)N[C@@H](C)C(=O)N1CCC[C@H]1C(=O)N1CCC[C@H]1C(=O)N1CCC[C@H]1C(=O)N[C@@H](CO)C(N)=O [Example 372] (H-[dY][Aib]EGTFTSDYSI[αMeL]LDKK([AEEA-γGlu-C20 diacid])AQ[Aib]EFIE[αMeY]LIAGGPSSGAPPPS-NH2) | 0.365 | 0.0781 | 0.00981 | 32.9 | 0.379 |
| CC[C@H](C)[C@H](NC(=O)[C@H](CC(C)C)NC(=O)[C@](C)(Cc1ccc(O)cc1)NC(=O)[C@H](CCC(=O)O)NC(=O)[C@@H](NC(=O)[C@H](Cc1ccccc1)NC(=O)[C@H](C)NC(=O)C(C)(C)NC(=O)[C@H](CCC(N)=O)NC(=O)[C@H](C)NC(=O)[C@H](CCCCNC(=O)COCCOCCNC(=O)COCCOCCNC(=O)CC[C@H](NC(=O)CCCCCCCCCCCCCCCCC(=O)O)C(=O)O)NC(=O)[C@H](CCCN)NC(=O)[C@H](CC(=O)O)NC(=O)[C@H](CC(C)C)NC(=O)[C@](C)(CC(C)C)NC(=O)[C@@H](NC(=O)[C@H](CO)NC(=O)[C@H](Cc1ccc(O)cc1)NC(=O)[C@H](CC(=O)O)NC(=O)[C@H](CO)NC(=O)[C@@H](NC(=O)[C@H](Cc1ccccc1)NC(=O)[C@@H](NC(=O)CNC(=O)[C@H](CCC(=O)O)NC(=O)C(C)(C)NC(=O)[C@H](N)Cc1ccc(O)cc1)[C@@H](C)O)[C@@H](C)O)[C@@H](C)CC)[C@@H](C)CC)C(=O)N[C@@H](C)C(=O)NCC(=O)NCC(=O)N1CCC[C@H]1C(=O)N[C@@H](CO)C(=O)N[C@@H](CO)C(=O)NCC(=O)N[C@@H](C)C(=O)N1CCC[C@H]1C(=O)N1CCC[C@H]1C(=O)N1CCC[C@H]1C(=O)N[C@@H](CO)C(N)=O [Example 377] (H-[dY][Aib]EGTFTSDYSI[αMeL]LD[Orn]K([AEEA-AEEA-γGlu-C18 diacid])AQ[Aib]AFIE[αMeY]LIAGGPSSGAPPPS-NH2) | 0.136 | 0.0544 | 0.00532 | 16.7 | 0.356 |

From US12252524B2, “GIP/GLP1 co-agonist compounds” (Eli Lilly and Company, priority 2018, dated 2025)
